# Laboratory results from PMC6199744, “Development of Chemical Proteomics for the Folateome and Analysis of the Kinetoplastid Folateome” (ACS Infectious Diseases, 2018).
# Like-named read-outs stand apart in the source and are kept apart here.
# Experiments:
# Type in all cases: binding
# [1] = target: T1, HeLa cell extract proteins (Homo sapiens, UniProt Q8NBJ5)
# T1 construct: endogenous in cells; host or cells: HeLa cell extract
# [2] = target: T2, HeLa cell extract proteins (Homo sapiens, UniProt O15160)
# T2 construct: endogenous in cells; host or cells: HeLa cell extract
# [3] = target: T3, HeLa cell extract proteins (Homo sapiens, UniProt P42330)
# T3 construct: endogenous in cells; host or cells: HeLa cell extract
# T3 sequence (P42330 1-323): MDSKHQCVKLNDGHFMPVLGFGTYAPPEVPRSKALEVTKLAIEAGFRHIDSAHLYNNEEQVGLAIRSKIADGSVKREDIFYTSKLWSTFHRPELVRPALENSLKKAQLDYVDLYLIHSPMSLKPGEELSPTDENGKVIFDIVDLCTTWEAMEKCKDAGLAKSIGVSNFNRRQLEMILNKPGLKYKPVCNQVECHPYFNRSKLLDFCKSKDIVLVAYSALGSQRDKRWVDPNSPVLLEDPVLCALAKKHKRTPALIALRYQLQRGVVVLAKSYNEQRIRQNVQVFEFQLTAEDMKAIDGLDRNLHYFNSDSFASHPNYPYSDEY
# [4] = target: T4, HeLa cell extract proteins (Homo sapiens, UniProt P14373)
# T4 construct: endogenous in cells; host or cells: HeLa cell extract
# T4 sequence (P14373 1-513): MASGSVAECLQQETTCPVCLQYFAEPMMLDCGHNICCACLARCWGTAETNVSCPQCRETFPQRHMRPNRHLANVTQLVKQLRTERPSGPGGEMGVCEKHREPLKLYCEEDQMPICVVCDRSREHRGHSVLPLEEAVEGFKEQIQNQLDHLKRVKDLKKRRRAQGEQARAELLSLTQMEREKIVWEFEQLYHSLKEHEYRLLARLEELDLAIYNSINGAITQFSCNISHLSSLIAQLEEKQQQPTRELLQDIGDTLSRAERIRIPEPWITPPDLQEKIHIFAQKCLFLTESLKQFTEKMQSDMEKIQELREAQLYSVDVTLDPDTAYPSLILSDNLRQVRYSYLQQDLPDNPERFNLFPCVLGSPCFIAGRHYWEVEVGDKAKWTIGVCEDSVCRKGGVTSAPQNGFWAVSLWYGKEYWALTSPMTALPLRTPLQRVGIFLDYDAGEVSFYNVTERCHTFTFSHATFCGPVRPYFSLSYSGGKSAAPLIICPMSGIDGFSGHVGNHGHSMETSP
# [5] = target: T5, HeLa cell extract proteins (Homo sapiens, UniProt P62888)
# T5 construct: endogenous in cells; host or cells: HeLa cell extract
# [6] = target: T6, HeLa cell extract proteins (Homo sapiens, UniProt Q8IWA4)
# T6 construct: endogenous in cells; host or cells: HeLa cell extract
# T6 sequence (Q8IWA4 1-741): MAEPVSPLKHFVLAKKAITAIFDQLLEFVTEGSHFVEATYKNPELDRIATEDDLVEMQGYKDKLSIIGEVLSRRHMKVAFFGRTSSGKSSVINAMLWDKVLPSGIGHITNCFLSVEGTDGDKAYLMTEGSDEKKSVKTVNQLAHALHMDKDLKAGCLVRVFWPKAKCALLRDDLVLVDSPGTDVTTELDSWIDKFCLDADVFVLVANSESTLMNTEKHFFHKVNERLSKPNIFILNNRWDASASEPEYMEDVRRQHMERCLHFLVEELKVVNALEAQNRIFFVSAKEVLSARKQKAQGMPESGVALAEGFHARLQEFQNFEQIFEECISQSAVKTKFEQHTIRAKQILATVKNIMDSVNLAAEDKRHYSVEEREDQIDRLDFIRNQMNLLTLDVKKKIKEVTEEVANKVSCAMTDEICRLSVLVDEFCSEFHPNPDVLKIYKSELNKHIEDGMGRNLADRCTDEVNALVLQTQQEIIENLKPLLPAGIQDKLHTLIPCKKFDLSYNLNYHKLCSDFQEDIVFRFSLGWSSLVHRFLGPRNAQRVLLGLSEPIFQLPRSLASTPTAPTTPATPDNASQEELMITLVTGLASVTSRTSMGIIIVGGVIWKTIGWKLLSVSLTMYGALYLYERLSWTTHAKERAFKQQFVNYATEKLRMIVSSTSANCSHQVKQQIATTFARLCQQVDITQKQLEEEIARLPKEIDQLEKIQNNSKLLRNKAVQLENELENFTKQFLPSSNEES
# [7] = target: T7, HeLa cell extract proteins (Homo sapiens, UniProt Q9UGJ1); settings: HeLa; protein TUBGCP4
# T7 construct: endogenous in cells; host or cells: HeLa cell extract
# [8] = target: T8, HeLa cell extract proteins (Homo sapiens, UniProt O00165); settings: captured protein HAX1; HeLa
# T8 construct: endogenous in cells; host or cells: HeLa cell extract
# [9] = target: T9, HeLa cell extract proteins (Homo sapiens, UniProt O75489); settings: HeLa; protein NDUFS3
# T9 construct: endogenous in cells; host or cells: HeLa cell extract
# [10] = target: T10, HeLa cell extract proteins (Homo sapiens, UniProt P30405); settings: protein PPIF; HeLa
# T10 construct: endogenous in cells; host or cells: HeLa cell extract
# [11] = target: T11, HeLa cell extract proteins (Homo sapiens, UniProt P46782); settings: protein RPS5; HeLa
# T11 construct: endogenous in cells; host or cells: HeLa cell extract
# [12] = target: T12, HeLa cell extract proteins (Homo sapiens, UniProt P17655); settings: protein CAPN2; HeLa
# T12 construct: endogenous in cells; host or cells: HeLa cell extract
# T12 sequence (P17655 1-700): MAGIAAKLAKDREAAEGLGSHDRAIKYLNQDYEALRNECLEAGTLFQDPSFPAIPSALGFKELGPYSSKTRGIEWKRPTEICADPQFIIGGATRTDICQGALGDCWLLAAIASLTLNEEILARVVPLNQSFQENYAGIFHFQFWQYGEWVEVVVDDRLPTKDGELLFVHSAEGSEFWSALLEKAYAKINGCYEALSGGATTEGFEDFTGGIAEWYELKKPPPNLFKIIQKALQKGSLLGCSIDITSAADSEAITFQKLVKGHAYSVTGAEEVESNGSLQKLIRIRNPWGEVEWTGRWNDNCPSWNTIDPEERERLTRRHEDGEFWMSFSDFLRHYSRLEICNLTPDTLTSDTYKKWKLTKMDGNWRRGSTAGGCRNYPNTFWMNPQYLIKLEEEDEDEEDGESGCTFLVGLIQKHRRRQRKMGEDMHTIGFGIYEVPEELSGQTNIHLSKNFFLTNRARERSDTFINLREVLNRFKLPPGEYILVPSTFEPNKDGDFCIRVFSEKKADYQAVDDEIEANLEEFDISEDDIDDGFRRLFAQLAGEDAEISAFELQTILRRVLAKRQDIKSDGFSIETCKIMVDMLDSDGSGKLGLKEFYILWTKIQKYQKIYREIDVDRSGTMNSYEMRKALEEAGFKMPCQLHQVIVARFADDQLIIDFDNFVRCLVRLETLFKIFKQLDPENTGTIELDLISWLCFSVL
# T2 sequence (O15160 whole entry): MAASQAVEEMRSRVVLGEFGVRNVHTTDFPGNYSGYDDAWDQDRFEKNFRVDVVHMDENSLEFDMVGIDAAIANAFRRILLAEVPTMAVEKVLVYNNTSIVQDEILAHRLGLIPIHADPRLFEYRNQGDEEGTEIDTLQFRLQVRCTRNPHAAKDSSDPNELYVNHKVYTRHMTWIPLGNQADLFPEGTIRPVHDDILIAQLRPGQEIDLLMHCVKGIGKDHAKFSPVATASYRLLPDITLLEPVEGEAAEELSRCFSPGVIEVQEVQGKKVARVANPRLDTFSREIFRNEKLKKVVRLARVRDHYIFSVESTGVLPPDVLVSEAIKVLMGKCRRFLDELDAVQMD
# T7 sequence (Q9UGJ1 whole entry): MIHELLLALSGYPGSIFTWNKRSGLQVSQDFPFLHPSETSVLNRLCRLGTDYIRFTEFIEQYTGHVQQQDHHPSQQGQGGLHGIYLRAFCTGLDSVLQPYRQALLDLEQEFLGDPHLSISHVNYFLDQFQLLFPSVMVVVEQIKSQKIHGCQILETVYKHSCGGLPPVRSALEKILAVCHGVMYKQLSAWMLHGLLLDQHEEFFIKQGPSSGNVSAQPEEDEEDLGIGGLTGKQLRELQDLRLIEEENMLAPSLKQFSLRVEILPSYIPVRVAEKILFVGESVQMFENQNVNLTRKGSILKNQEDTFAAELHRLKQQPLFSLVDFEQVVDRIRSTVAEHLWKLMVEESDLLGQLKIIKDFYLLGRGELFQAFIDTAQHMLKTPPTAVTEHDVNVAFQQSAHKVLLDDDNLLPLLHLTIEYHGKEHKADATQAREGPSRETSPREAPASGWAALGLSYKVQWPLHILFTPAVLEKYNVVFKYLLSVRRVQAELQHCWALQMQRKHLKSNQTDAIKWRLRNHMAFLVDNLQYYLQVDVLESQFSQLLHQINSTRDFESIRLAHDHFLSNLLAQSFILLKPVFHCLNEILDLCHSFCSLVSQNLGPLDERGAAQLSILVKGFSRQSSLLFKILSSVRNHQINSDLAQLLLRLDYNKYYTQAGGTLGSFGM
# T8 sequence (O00165 whole entry): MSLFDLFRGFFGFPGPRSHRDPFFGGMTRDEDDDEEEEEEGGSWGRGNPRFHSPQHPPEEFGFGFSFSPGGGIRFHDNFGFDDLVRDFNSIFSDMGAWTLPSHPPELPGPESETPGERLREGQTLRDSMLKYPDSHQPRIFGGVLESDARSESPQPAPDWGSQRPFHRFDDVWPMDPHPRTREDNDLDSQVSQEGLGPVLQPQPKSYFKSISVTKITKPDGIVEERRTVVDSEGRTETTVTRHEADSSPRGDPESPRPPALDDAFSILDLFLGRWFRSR
# T10 sequence (P30405 30-207): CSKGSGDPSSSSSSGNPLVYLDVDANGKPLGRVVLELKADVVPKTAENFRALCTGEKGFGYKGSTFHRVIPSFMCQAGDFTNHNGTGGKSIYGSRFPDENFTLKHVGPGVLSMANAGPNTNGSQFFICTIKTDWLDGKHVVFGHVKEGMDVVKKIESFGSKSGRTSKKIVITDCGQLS
# T9 sequence (O75489 37-264): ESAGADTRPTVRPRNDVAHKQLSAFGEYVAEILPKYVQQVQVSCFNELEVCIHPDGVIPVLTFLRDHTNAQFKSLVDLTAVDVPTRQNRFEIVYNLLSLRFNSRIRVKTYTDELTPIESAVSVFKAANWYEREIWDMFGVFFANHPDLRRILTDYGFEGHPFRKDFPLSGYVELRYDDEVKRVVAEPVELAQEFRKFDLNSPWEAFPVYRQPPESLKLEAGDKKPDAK
SMILES,"fold changes relative to vehicle control ([1]; HeLa, captured protein GLT25D1)","fold changes relative to vehicle control ([2]; protein POLR1C, HeLa)","fold changes relative to vehicle control ([3]; HeLa, protein AKR1C3)","fold changes relative to vehicle control ([4]; HeLa, captured protein TRIM27)","fold changes relative to vehicle control ([5]; protein RPL30, HeLa)","fold changes relative to vehicle control ([6]; protein MFN1, HeLa)",fold changes relative to vehicle control [7],fold changes relative to vehicle control [8],fold changes relative to vehicle control [9],fold changes relative to vehicle control [10],fold changes relative to vehicle control [11],fold changes relative to vehicle control [12],also measured
"Nc1nc2c(c(=O)[nH]1)N(C=O)C(CNc1ccc(C(=O)N[C@@H](CCC(=O)O)C(=O)O)cc1)CN2 (stereo partly drawn) [LEU, leucovorin]",0.95,0.87,0.98,0.97,0.86,0.81,–,–,–,–,–,–,–
"Nc1nc2[nH]cc(CCc3ccc(C(=O)N[C@@H](CCC(=O)O)C(=O)O)cc3)c2c(=O)[nH]1 [PTX, pemetrexed]",–,–,–,–,–,–,–,–,–,–,–,–,fold changes relative to vehicle control [1]: 0.83; fold changes relative to vehicle control [2]: 0.9; fold changes relative to vehicle control [3]: 1.13; fold changes relative to vehicle control [4]: 0.87; fold changes relative to vehicle control [5]: 0.89; fold changes relative to vehicle control [6]: 0.89
CCCCCCOc1ccc(Cc2cnc(N)nc2N)cc1 [compound 1],–,–,–,–,–,–,0.85,0.92,1.05,1.23,1.04,0.97,–
CCCCCCOc1cccc(Cc2cnc(N)nc2N)c1 [compound 2],–,–,–,–,–,–,1.07,1.1,1.19,1.79,1.1,1.23,–
Nc1nc2cccc(-c3ccccc3)c2n1Cc1ccc(Cl)c(Cl)c1 [compound 3],–,–,–,–,–,–,1.02,1.13,0.86,0.95,1.01,0.91,–
NCCOCCOCC(=O)Nc1nc2ncc(CNc3ccc(C(=O)NC(CCC(=O)O)C(=O)O)cc3)nc2c(=O)[nH]1 (stereo not drawn) [compound 6],0.93,0.97,1.3,0.89,1,0.99,–,–,–,–,–,–,–
NCCCNc1ccc(C(=O)NC(CCC(=O)O)C(=O)O)cc1 (stereo not drawn) [compound 7],0.97,0.95,0.99,1.01,0.92,1.02,–,–,–,–,–,–,–
